Results reported in patent US8470780B2, “Methods and compositions related to targeting wounds, regenerating tissue, and tumors” (Sanford-Burnham Medical Research Institute, priority 2006, dated 2013).
Bridges are numbered along the chain shown (N, C = ends). Where no end group is shown, it is not given here.

Columns and labels:
CHO-K cells [1] = assay: Internalization of fluorescein-labeled peptides by CHO-K cells; assay type: cell-based, Chinese hamster; conditions: for fluorescence and localization in CHO-K cells by confocal microscopy: FITC-conjugated peptides 10 μM, 4 hours; for accumulation in CHO-K cells: comparison of CHO-K and pgsA-745 cells
Experimental: (§1) To study peptide internalization, CHO-K cells or HUVEC seeded on plastic coverslips were incubated with 10 μM fluorescein-conjugated peptides for 30 min to 72 hours, washed 3 times with PBS, and fixed with 4% paraformaldehyde for 20 min at room temperature. After several washes with PBS, the nuclei were visualized by staining with DAPI, and the slides were mounted with ProLong Gold antifade reagent (Invitrogen, Carlsbad, Calif.). The images were acquired using Olympus IX81 inverted and Olympus Fluoview FV1000 confocal microscopes. Z-stack images were taken by confocal microscope every 1 μm through the cells.

CHO-K cells [2] = assay: FACS analysis of peptide binding to CHO-K cells; assay type: cell-based, Chinese hamster; conditions: for peptide binding to CHO-K cells: 5 μM peptide
Experimental: (§2) Peptide binding to cells was studied essentially as described above for phage. Peptides were tested at 5 μM concentration, with or without 5×10^9 phage. After incubation on ice for 30 min, the cells were washed and resuspended with PBS containing 2 μg/ml of propidium iodide (PI, Invitrogen, Carlsbad, Calif.) and analyzed using a FACScan flow cytometer (BD, San Jose, Calif.).

pgsA-745 cells [3] = assay: FACS analysis of peptide binding to pgsA-745 cells; assay type: cell-based, Chinese hamster; conditions: 5 μM peptide
Experimental: as §2

tendon and skin wounds = assay: Tissue distribution of fluorescein-labeled peptides after intravenous injection; assay type: in vivo, mice and rats; conditions: FITC conjugates; for fluorescent signal in the wounds: 4 and 8 hours after injection
Excerpt: Two types of injuries were used with patellar tendons: For phage screening in rats, patellar tendons were exposed through small skin incisions placed on the lateral side of the joint so that the skin wound and tendon wound were not in direct contact with each other. Six longitudinal, full-length incisions were made into the tendon. Full-thickness incision wounds, 1.5 cm in length, were made in skin on the back of the animal. The skin wounds were left uncovered without a dressing. For quantification of phage homing and peptide injections, two size 11 surgical scalpels were placed side-by-side and the central third of the patellar tendon was removed analogous to the graft used in anterior cruciate ligament reconstruction. Achilles tendons were wounded by making four longitudinal, full-length incisions into the tendon Skin wounds were 8 mm circular, full-thickness excision wounds, made to the skin with a biopsy punch. None of the procedures prevented the animals from bearing weight and moving immediately after the operation and without a noticeable […].
Peptides were synthesized with an automated peptide synthesizer by using standard solid-phase fluorenylmethoxycarbonyl chemistry. During synthesis, the peptides were labeled with fluorescein with an amino-hexanoic acid spacer. Each individual fluorescein-conjugated peptide was injected intravenously into the tail vein of rats or mice with wounds. The peptides were allowed to circulate for different periods of time, followed by heart perfusion. Tissues were embedded into OCT (Tissue-Tek) and processed for microscopy.
Frozen tissue sections were fixed in acetone for 10 min and incubated with 0.5% blocking reagent for 1 hour (NEN Life Sciences, Boston, Mass.). Tissue sections were incubated with the primary antibody overnight at 4° C. The following monoclonal (mAbs) and polyclonal antibodies (pAbs) were used: rabbit anti-T7-phage affinity-purified pAb (1:100), rat anti-mouse CD31 mAb (1:200; BD Pharmingen) and rabbit anti-FITC pAb (1:200, Invitrogen, Carlsbad, Calif.). The primary antibodies were detected with labeled secondary antibodies, and each staining experiment included sections stained with species-matched immunoglobulins as negative controls. The sections were washed several times with PBS, mounted in Vectashield Mounting Medium with DAPI (Vector Laboratories) and visualized under an inverted fluorescent or light microscope.

mitochondrial membranes = conditions: concentration of 10 μM; cited from earlier work
[4] = tested on: MDA-MB-235 tumor xenografts; assay: Homing of fluorescein-conjugated peptides to tumor xenografts; assay type: in vivo, mice; conditions: intravenous, tumor collected 4 hours later; for homing to tumors and extravasation: fluorescence
Experimental: Fluorescein-conjugated peptides CAR, control peptide CAR2, CRK and control peptide KAREC were intravenously injected into mice with MDA-MB-235 tumor xenografts. Tumor tissue was collected 4 hours later and examined for the presence of the peptides. Blood vessels were stained with CD-31 antibody and the nuclei were stained with DAPI.
Fluorescein-conjugated peptides CAR, control peptide CAR2, CRK and control peptide KAREC were intravenously injected into mice with MDA-MB-235 tumor xenografts. Tumor tissue was collected 4 hours later and examined for the presence of the peptides. Adjacent tissue section were stained for blood vessels (CD-31), while the FITC-labeled peptide was first detected with rabbit anti-FITC followed by biotin-conjugated anti-rabbit IgG to confirm the source of fluorescent signal to be from the FITC-labeled peptide. The sections were then stained with hematoxylin-eosin.

[5] = tested on: human umbilical vein endothelial cells (HUVECs); assay: Internalization of peptides by HUVECs; assay type: cell-based; conditions: 10 μM, 24 h
Experimental: as §1

pgsA-745 cells [6] = assay: Internalization of peptides by pgsA-745 cells; assay type: cell-based, Chinese hamster; conditions: comparison of CHO-K and pgsA-745 cells

KAREC [unrelated 5 amino-acid control peptide, reference compound]
fluorescence and localization in CHO-K cells by confocal microscopy (CHO-K cells [1]): no detectable fluorescence
peptide binding to CHO-K cells (CHO-K cells [2]): no binding
peptide binding to pgsA-745 cells (pgsA-745 cells [3]): no binding
fluorescent signal in the wounds (tendon and skin wounds): no detectable signal in the wounds

D(KLAKLAK)2 (KLAKLAKKLAKLAKKLAKKLAKAAKKAA) [antimicrobial peptide which promotes disruption of mitochondrial membranes]
mitochondrial swelling (mitochondrial membranes): marked mitochondrial swelling

CRKDKC (not fully specified (N-terminus); cysteine pairing not given here; also: FITC conjugate, site not given here) [tested as fluorescein (FITC) conjugate]
fluorescence and localization in CHO-K cells by confocal microscopy (CHO-K cells [1]): no detectable fluorescence
binding and internalization by CHO-K cells (CHO-K cells [1]; fluorescein-labeled peptide): bound to the cells, but was not detectably internalized
homing detected with anti-FITC antibody [4]: home to hypervascular regions surrounding the tumors and to tumor tissue
homing to tumors and extravasation [4]: home to tumors and extravasate to tumor tissue
binding and internalization by HUVECs [5]: binds to the cells, but does not internalize
fluorescent signal in non-tumor tissues (liver, kidney, lung and spleen) (tendon and skin wounds): did not differ from that of the fluorescein-labeled CAR2 or KAREC peptides
fluorescent signal in the wounds (tendon and skin wounds): strong fluorescent signal in the wounds

CARSTKATC [CAR2]
fluorescence and localization in CHO-K cells by confocal microscopy (CHO-K cells [1]): no detectable fluorescence
binding and internalization by CHO-K cells (CHO-K cells [1]; fluorescein-labeled peptide): no binding or internalization
peptide binding to CHO-K cells (CHO-K cells [2]): bound only weakly
fluorescent signal in the wounds (tendon and skin wounds): no accumulated fluorescence

CGKRK [reference compound]
effect of unlabeled competitor on uptake of fluorescein-labeled CAR peptide by CHO-K cells (CHO-K cells [1]; 10-molar excess of unlabeled peptide): did not detectably affect the uptake
fluorescence and localization in CHO-K cells by confocal microscopy (CHO-K cells [1]): overlap with the nuclei and the cytosol
accumulation in CHO-K cells (CHO-K cells [1]): accumulated in the cytosol and nuclei
accumulation in pgsA-745 cells (pgsA-745 cells [6]): accumulated in the cytosol and nuclei

CARSKNKDC (disulfide 1-9 (inferred); not fully specified (N-terminus); also: FITC conjugate, site not given here) [tested as fluorescein (FITC) conjugate]
fluorescence and localization in CHO-K cells by confocal microscopy (CHO-K cells [1]): strong green fluorescence that mostly overlaps with nuclear DAPI staining
accumulation in CHO-K cells (CHO-K cells [1]): only binds to and is internalized by the CHO-K cells
time to accumulation inside the cells, overlapping with the nucleus (CHO-K cells [1]; fluorescein-labeled peptide): ≤ 30 min
peptide binding to CHO-K cells (CHO-K cells [2]): strong binding
inhibition of labeled CAR peptide binding to CHO-K cells by competitor (CHO-K cells [2]; excess unlabeled peptide or phage): inhibited the binding in a dose-dependent manner
homing detected with anti-FITC antibody [4]: home to hypervascular regions surrounding the tumors and to tumor tissue
homing to tumors and extravasation [4]: home to tumors and extravasate to tumor tissue
binding and internalization by HUVECs [5]: binds to cells and appears to enter the cells co-localizing with the nuclei
fluorescent signal in non-tumor tissues (liver, kidney, lung and spleen) (tendon and skin wounds): did not differ from that of the fluorescein-labeled CAR2 or KAREC peptides
fluorescent signal in the wounds (tendon and skin wounds): strong fluorescent signal in the wounds
accumulation in pgsA-745 cells (pgsA-745 cells [6]): only binds to and is internalized by the CHO-K cells
